Paper PMC8546421, “Molecular modelling of the FOXO4-TP53 interaction to design senolytic peptides for the elimination of senescent cancer cells” (EBioMedicine, 2021)
pIC50: −log10 of the molar value. Entries after “also recorded” stand apart in the source; their conditions may differ. Where no end group is shown, it is not given here.

Assays:
A375 cells = experiment: Annexin V live cell stain, kinetics of apoptosis; assay type: cell-based, human; conditions: 8 µM ES2, A375 cells, linear regression comparison p<0.001
senescent A375 cells = experiment: Peptide efficacy in culture (MTS), senescent cells; assay type: cell-based, human
Method: Cell lines were treated with chemotherapy, doxorubicin (Sigma, Cat. No. 2252) to induce senescence (200 nM for HCT116, 100 nM for B16-F10 and MCF7, 50 nM for SW480 and DLD-1, 40 nM for A375-Luc/iRFP and MCF10a). MCF7 cells were treated with CDK4/6 inhibitor, palbociclib (Selleck Chemicals: S1116) to induce senescence (5 µM). A375 cells were treated with Braf inhibitor, Dabrafenib (Selleck Chemicals: S2807), to induce senescence (10 µM). Peptide efficacy experiments were performed by seeding 10,000 – 20,000 cells in a 96-well plate. The cells were given doxorubicin twice to make the cells senescent. After removal of doxorubicin, the plate was treated with varying concentrations of peptide. The peptide was replenished daily for two days. Cellular proliferation was quantified using the Promega CellTiter 96™ AQueous One Solution Cell Proliferation Assay (MTS) after 2 hours according to the manufacturer's protocol (Promega, G3581). To control for the charge of ES2, ProteoJuice (Millipore Sigma, 71281) was used to deliver ES2 using the manufacturers protocol, except 50 µL of 2 mM ES2 was mixed with 25 µL of ProteoJuice. Varying concentrations of the mixture were administered to A375 cells along with a control of only ProteoJuice.

[1] = system: dividing A375 human melanoma cells; experiment: Survival study, orthotopic A375 xenograft; assay type: in vivo, mouse; conditions: local injection once daily for two days
From the text: Mice were aged between 3-8 months and 20-30 g in weight and were housed in specific pathogen free cages. Animals were randomly distributed among treatment groups by assigning mice within the same cage to different treatment regimens. To minimise confounders, mouse treatment order was randomised within each cage. Male and female mice were distributed between all treatment groups since the chemicals used were directly injected and are not metabolized. Researchers were not blinded to the group allocation, but all attempts were made to analyse the data without knowing treatment conditions. NOD.Cg-Prkdcscid Il2rgtm1Wjl/SzJ (NSG) were purchased from The Jackson Laboratory (IMSR Cat# JAX:005557, RRID:IMSR_JAX:005557). NOD.Cg-KitW-41J Tyr + Prkdcscid Il2rgtm1Wjl/ThomJ (NBSGW) were purchased from The Jackson Laboratory (IMSR Cat# JAX:026622, RRID:IMSR_JAX:026622). Immunocompromised mice used for these experiments were all in the NSG background; however, some mice were F1 generation of NSG x NBSGW, thus the brown coat colour as NBSGW mice have tyrosinase. Xenografts containing senescent cells were established by injecting A375-Luc/iRFP human melanoma cells which contained a luciferase expressing gene into immunocompromised NSG ears. Senescence was induced in the cells via doxorubicin treatment (40 nM) then resuspended in DMEM prior to injection. Each ear was then injected with 50 µL containing approximately 1,000,000 cells. The ears were treated once daily for two days with 50 µL of either 5 mg/mL peptide, or saline. To control for confounders, each mouse contained one ear treated with saline (control). For imaging, mice were injected with 3 mg luciferin intravenously and imaged before and after treatment. Transgenic mice (BrafCA, PtenloxP, Tyr::CreERT2) were purchased from The Jackson Laboratory (IMSR Cat# JAX:013590, RRID:IMSR_JAX:013590). These mice were maintained on a C57Bl6 background and all experimental mice contained Tyr::CreER with either Braf^CA/+, Pten^fx/+; Braf^CA/CA, Pten^fx/+, or Braf^CA/+, Pten^fx/fx. […] Hypopigmented melanomas sporadically formed over the next 3-5 months, typically on the back of the mouse. These melanomas were then directly injected with 100 µL of either 20 mg/mL ES2+10%DMSO, saline+10%DMSO, saline+10%Dabrafenib, or 20 mg/mL ES2+10%Dabrafenib. The researchers were not blinded to the experiment, but each mouse contained an internal control and all imaging was done with the same exposure times based upon control tissue. For survival analyses, either 750,000 or 25,000 A375-Luc/iRFP cells were injected intradermally into NSG mice. […] Mice were then monitored daily and allowed to age until a humane endpoint was reached according to our IACUC protocol, which in this case was tumours of 2 cm in size. […]

## PRKGGRRRRAWGRRRRRRRRRRRRRRAPRKRLTLA [ES2]
A375 cells
  rate of apoptosis, senescent compared to dividing cells: four-fold
Senescent A375 cells; A375 cells, ProteoJuice control experiment, highest concentration
  cell death: 80%
Senescent A375 cells; ES2 delivered with ProteoJuice vs ES2 alone, senescent A375 cells, n=5
  effect of delivery with ProteoJuice on senolytic activity: had no effect on viability in senescent cells compared to ES2 alone; also recorded: no difference in senolytic activity
Senescent A375 cells; doxorubicin (40 nM)-induced senescent A375 cells, peptide replenished daily for two days, MTS, best fit polynomial, read-out: IC50^sen, concentration to kill 50% of senescent cells
  pIC50: ~5.15
Senescent A375 cells; senescent vs dividing A375 cells
  senolytic activity (in words): highest senolytic activity
[1]; 25,000 A375 cells
  effect on survival time, in words: no effect on survival time
[1]; 750,000 A375 cells
  effect on survival time, in words: did not alter survival times
